Reference: ChEMBL document CHEMBL5500328, “Comprehensive review on the elaboration of payloads derived from natural products for antibody-drug conjugates” (Eur J Med Chem, 2024)

How the values were obtained:
[1] = system: CCRF-CEM; assay: Cytotoxicity against human CCRF-CEM cells assessed as reduction in cell growth; type: functional, cell-based
[2] = system: KB 3-1; assay: Cytotoxicity against human KB-3-1 cells assessed as inhibition of cell growth; type: functional, cell-based
[3] = biological target: Tubulin; assay: Binding affinity to tubulin (unknown origin) assessed as dissociation constant by SPR analysis; type: protein-complex assay, Homo sapiens
[4] = Cytotoxicity against human L540cy assessed as reduction in cell growth incubated for 4 days by CellTiter-Glo assay; type: functional, cell-based; settings: 96 h
[5] = system: KB; assay: Cytotoxicity against human KB cells assessed as reduction in cell viability; type: functional, cell-based
[6] = system: LoVo; assay: Cytotoxicity against human LoVo cells; type: functional, cell-based

## COc1ccc(C[C@H]2NC(=O)/C=C/C[C@@H]([C@H](C)[C@H]3O[C@H]3c3ccc(F)cc3)OC(=O)[C@H](CC(C)C)OC(=O)C(C)(C)CNC2=O)cc1Cl
[1]
  IC50: 0.033 nM

## COc1ccc(C[C@H]2NC(=O)/C=C/C[C@@H]([C@H](C)[C@H]3O[C@H]3c3ccccc3)OC(=O)[C@H](CC(C)C)OC(=O)C(C)(C)CNC2=O)cc1Cl
[2]
  IC50: 0.015 nM
[3]
  Kd: 47 nM

## CC[C@@]1(O)C(=O)OCc2c1cc1n(c2=O)Cc2cc3c(CN)c4c(cc3nc2-1)OCO4
[4]
  IC50: 1 nM

## COc1ccc(C[C@H]2NC(=O)/C=C/C[C@@H]([C@H](C)[C@H]3O[C@H]3c3ccccc3)OC(=O)[C@H](CC(C)C)OC(=O)[C@H](C)CNC2=O)cc1Cl [CRYPTOPHYCIN 39]
[5]
  IC50: 0.00458 nM
[6]
  IC50: 0.00763 nM
